Results from patent US20120288712A1, “ESCITALOPRAM AND SOLID PHARMACEUTICAL COMPOSITION COMPRISING THE SAME” (ratiopharm GmbH, priority 2006, published 2012).
Structures can show the parent of a compound that is named as a salt.

Assay: Particle size distribution by laser diffraction (Sympatec Helos)
Assay type: physicochemical
Conditions: laser diffraction at 1 bar dispersive pressure
Source text: As used herein, “particle size distribution” means the cumulative volume size distribution of equivalent spherical diameters as determined by laser diffraction at 1 bar dispersive pressure in a Sympatec Helos equipment. “Median particle size”, correspondingly, means the median of said particle size distribution. When the term “Escitalopram” is used it covers Escitalopram as well as a pharmaceutically acceptable salt and/or a pharmaceutically acceptable solvate thereof.

median particle size: about 6.65 μm
ratio between the median particle size and the particle size at the 95% quantile: about 0.61
Compound: CN(C)CCC[C@@]1(c2ccc(F)cc2)OCc2cc(C#N)ccc21 [Escitalopram oxalate, (S)-1-[3-(dimethylamino)propyl]-1-(4-fluorophenyl)-1,3-dihydro-5-isobenzofurancarbonitrile]
